Data published in publication PMC12045974, “T cell toxicity induced by tigecycline binding to the mitochondrial ribosome” (Nature Communications, 2025).
Where “and” joins values, the source holds several entries; their conditions need not be identical. Identical values can stand only once. Like-named read-outs stand apart in the source and are kept apart here.

Assays:
PBMCs = assay: Cell viability assay (CCK-8), PBMCs; format: cell-based, human; settings: 72 h
In short: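 Buffy-coat PBMCs were seeded at 15,000 cells/well in RPMI-1640 with 10% FBS, 2.05 mM L-glutamine and 55 μM 2-ME. Cells were exposed for 72 h at 37 °C, 5% CO2 to 9 concentrations, up to 300 μM for tetracyclines and up to 900 μM for other inhibitors, with DMSO controls. CCK-8 read after 4 h; IC50 from dose-response curves.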

Jurkat T cells = assay: Cell viability assay (CCK-8), Jurkat T cells; format: cell-based, human; settings: 72 h; for cell vialibity normalized to Vehicle (DMSO): Jurkat, Fig. 1A, in % (unit assumed)
In short: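 This CCK-8 viability assay used Jurkat T cells seeded at 6000 per well and grown in supplemented RPMI-1640, 100 μl per well. Antibiotic stocks in DMSO were diluted in medium to give 9 concentrations, and untreated wells received matching DMSO. After treatment, cells were incubated with 10% CCK-8 for 3 h. Results were normalized to vehicle, technical repeats were plotted as mean ± SEM, and IC50 values were derived.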

HeLa cells = assay: Cell viability assay (CCK-8), HeLa cells; format: cell-based; settings: 10 μM
In short: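 Viability of HeLa cells was measured with Cell Counting Kit-8 after treatment with drug dilutions in 96-well plates (2000 cells/well, DMEM plus 10% FBS and 2.05 mM L-glutamine, humidified 37 °C, 5% CO2). Untreated wells received equal DMSO. After 1 h CCK-8 incubation, technical-repeat dose-response curves were plotted and IC50 values calculated in GraphPad Prism.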

[1] = tested on: mitochondrial translation; assay: 35S metabolic labeling, de novo mitochondrial translation assay in Jurkat T cells; format: cell-based, human; settings: 5 μM, 18 h of treatment
Protocol: Jurkat T cells were seeded in 6-well plates at a density of 1 million cells/ml and cultured with different concentrations of antibiotics for 18 h in RPMI-1640 medium (with 10% FBS, 2.05 mM L-glutamine (Sigma), and 55 μM 2-ME (Gibco)). After centrifugation, cells were incubated twice for 5 min at 37 °C in Cys-/Met-free medium (DMEM, high glucose, no glutamine, no methionine, no cysteine, supplemented with 10% dialyzed fetal bovine serum, 1× GlutaMax, and sodium pyruvate), followed by 20 min incubation at 37 °C in Cys-/Met-free medium supplemented with 100 µg/ml emetine to inhibit cytosolic translation (only for mitochondrial translation groups). Subsequently, 1 ml Cys-/Met-free medium supplemented with 200 (for cytosolic translation) or 400 µCi (for mitochondrial translation) of EasyTag EXPRESS [^35S] protein labeling mix (methionine and cysteine) (Perkin Elmer) were added to each sample and incubated for 20 min at 37 °C, 5% CO2. Following labeling, cells were washed three times with 1 ml PBS, harvested by centrifugation (400 × g, 10 min, 4 °C), and stored at −20 °C. Cells were lysed by resuspension in 30 µl PBS supplemented with a Complete EDTA-free protease inhibitor cocktail and 50 U Benzonase nuclease (Sigma) and by application of one freeze-thaw cycle. Protein contents were determined by Pierce BCA assay (Thermo Fisher). […]

[2] = Homo sapiens, PBMC, PBMCs, Fig. 1A, read-out: cell vialibity normalized to Vehicle (DMSO)
[3] = Homo sapiens, PBMC, PBMCs, Fig. 1B, read-out: cell vialibity normalized to Vehicle (DMSO)

CN(C)c1cc(NC(=O)CNC(C)(C)C)c(O)c2c1C[C@H]1C[C@H]3[C@H](N(C)C)C(O)=C(C(N)=O)C(=O)[C@@]3(O)C(O)=C1C2=O [Tigecycline, tigecycline]
toxicity to PBMCs in comparison with other bacterial protein synthesis inhibitors (PBMCs; Fig. 1B): greatest toxicity to PBMCs | viability at 0.137174 µM (PBMCs; Homo sapiens, PBMC, PBMCs, dose 0.137174 μM, Fig. 1B, read-out: cell vialibity normalized to Vehicle (DMSO)): 103% | viability at 0.411523 µM (PBMCs; [2]): 83.9% | viability at 0.411523 µM (PBMCs; [3]): 89.9% | viability at 1.23457 µM (PBMCs; [2]): 75.3% | viability at 1.23457 µM (PBMCs; [3]): 65.1% | viability at 3.7037 µM (PBMCs; Homo sapiens, PBMC, PBMCs, dose 3.7037 μM, Fig. 1B, read-out: cell vialibity normalized to Vehicle (DMSO)): 39.4% | viability at 11.1111 µM (PBMCs; Homo sapiens, PBMC, PBMCs, dose 11.1111 μM, Fig. 1A, read-out: cell vialibity normalized to Vehicle (DMSO)): 44.2% | viability at 33.3333 µM (PBMCs; [2]): 38.8% | viability at 33.3333 µM (PBMCs; [3]): 21.2% | viability at 100 µM (PBMCs; [2]): 20.8% | viability at 100 µM (PBMCs; [3]): 17.6% | IC50 (PBMCs; Homo sapiens, PBMC, PBMCs, after 3 days of treatment, read-out: IC50 (cell survival)): 2.02 to 9.42 µM | IC50 (Jurkat T cells; Homo sapiens, Jurkat T cells, after 3 days of treatment, read-out: IC50 (cell survival)): 2.94 to 3.08 µM | cell vialibity normalized to Vehicle (DMSO) (Jurkat T cells; dose 0.0457247 μM): 109.956 and 111.249 and 111.849 | cell vialibity normalized to Vehicle (DMSO) (Jurkat T cells; dose 0.137174 μM): 103.553 and 105.77 and 101.862 | cell vialibity normalized to Vehicle (DMSO) (Jurkat T cells; dose 0.411523 μM): 97.7193 and 94.1885 and 95.1333 | cell vialibity normalized to Vehicle (DMSO) (Jurkat T cells; dose 1.23457 μM): 79.9123 and 80.3238 and 79.0851 | cell vialibity normalized to Vehicle (DMSO) (Jurkat T cells; dose 3.7037 μM): 38.8158 and 37.5675 and 38.722 | cell vialibity normalized to Vehicle (DMSO) (Jurkat T cells; dose 11.1111 μM): 18.2456 and 17.144 and 16.3775 | cell vialibity normalized to Vehicle (DMSO) (Jurkat T cells; dose 33.3333 μM): 11.1842 and 10.0457 and 10.0296 | cell vialibity normalized to Vehicle (DMSO) (Jurkat T cells; dose 100 μM): 4.123 and 3.321 and 4.232 | cell vialibity normalized to Vehicle (DMSO) (Jurkat T cells; dose 300 μM): 2.237 and 2.989 and 2.158 | HeLa cell survival (HeLa cells): relatively resistant | inhibition of mitochondrial translation [1]: inhibited mitochondrial translation
